Source: patent US4400517A, “Phosphoric esters derived from 1,2,4-triazole having an insecticidal, nematocidal and acaricidal action, and their preparation” (priority 1976, dated 1983)
Read-outs that look alike come from different tables or passages of the source.

Experiments:
Assay type in all cases: in vivo
Pieris brassicae = test: Biological activity on Pieris brassicae (Lepidoptera); details: 48 h
Experimental: (2) Biological activity on Pieris brassicae (Lepidotera)
Cut-off cauliflower leaves were sprinkled with an aqueous dispersion of the products under examination (see TABLE 5).
After drying, the leaves were infested with 5-day old larvae. The percentage of mortality of the larvae (untreated leaves=0) was determined after 48 hours from treatment.

[1] = system: Leptinotarsa decemlineata; test: Biological activity on Leptinotarsa decemlineata (Coleoptera); details: 48 h, Table 5, read-out: Activity (mortality class), Leptinotarsa D.; for mortality at 0.005 %: 0.05%o; for mortality at 0.1 %: 1%o
Experimental: (3) Biological activity on Leptinotarsa decemlineata (Coleoptera)
Small potato plants grown in pots were infested with 4-day old larvae, and were then sprinkled with an aqueous dispersion of the products under examination (see Tables 4 and 5).
The mortality percentage (untreated small plants=0) was determined after 48 hours from treatment.

Culex pipiens = test: Biological activity on Culex pipiens larvae (Diptera); details: 24 h, Table 5, read-out: Activity (mortality class), Culex P. (larvae)
Experimental: (4) Biological activity on Culex pipiens (Diptera)
Into glasses containing an aqueous dispersion of the products under examination (see Tables 4 and 5) there were introduced mosquito larvae of third and fourth age.
The mortality percentage of the larvae (glasses containing pure water=0) was determined after 24 hours from treatment.

Tetranychus urticae = test: Biological activity on adults of Tetranychus urticae (Acari); details: 24 h, Table 5, read-out: Activity (mortality class), Tetranychus U. (adults); for mortality at 0.001 %: 0.01%o; for mortality at 0.1 %: 1%o
Experimental: (5) Biological activity on adults of Tetranychus urticae (Acari)
Discs of bean leaves were infested with adult acari and then sprinkled with an aqueous dispersion of the products under examination (see Tables 4 and 5).
The mortality percentage was determined after 24 hours from treatment (untreated leaf discs, mortality=0).

Spodoptera littoralis = test: Biological activity on Spodoptera littoralis (Lepidoptera); details: 48 h
Experimental: (7) Biological activity on Spodoptera littoralis (Lepidoptera)
Cut tobacco leaves were sprinkled with an aqueous dispersion of the products under examination (see Tables 4 and 5).
After drying, the leaves were infested with 5-day old larvae.
The percentage of mortality of the larvae was determined after 48 hours from treatment (untreated leaves, mortality=0).

Blatta orientalis = test: Biological activity on Blatta orientalis (Ortoptera); details: Blatta orientalis, 48 h, read-out: Activity (mortality class), Blatta O.
Experimental: (10) Biological activity on Blatta orientalis (Ortoptera)
The bottom and walls of glass crystallizers were treated uniformly with an acetonic solution of the products under examination (see Tables 4 and 5). After evaporation of the solvent, into each crystallizer were introduced ten 80-100 days old neanides. The crystallizers were then closed with a metal net cover. After 24 hours from the start of the treatment, the insects were transferred to similar untreated crystallizers, and there were appropriately nourished in conventional manner.
The percentage of mortality (untreated insects=0) was determined after 48 hours from the start of the treatment.

[2] = 0.01%o, Table 5, read-out: Activity (mortality class), Pieris B.
[3] = 0.05%o, Table 5, read-out: Activity (mortality class), Spodoptera L.
[4] = 1%o, Table 5, read-out: Activity (mortality class), Pieris B.
[5] = 1%o, Table 5, read-out: Activity (mortality class), Spodoptera L.
[6] = read-out: Activity (mortality class), Pieris B.
[7] = read-out: Activity (mortality class), Spodoptera L.

| Structure (SMILES) | mortality at 0.001 % (Pieris brassicae; [2]) | mortality at 0.005 % [1] | mortality at 0.02 ppm (Culex pipiens) | mortality at 0.001 % (Tetranychus urticae) | mortality at 0.005 % (Spodoptera littoralis; [3]) | mortality at 0.01 g/m2 (Blatta orientalis; 0,01 g/m^2, Table 5) | mortality at 2 ppm (Culex pipiens) | mortality at 0.1 % (Tetranychus urticae) | mortality at 0.1 % (Pieris brassicae; [4]) | mortality at 0.1 % [1] | mortality at 0.1 % (Spodoptera littoralis; [5]) | mortality at 1 g/m2 (Blatta orientalis; 1 g/m^2, Table 5) | mortality at 0.001 % (Pieris brassicae; [6]) | mortality at 0.1 % (Pieris brassicae; [6]) | mortality at 0.005 % (Spodoptera littoralis; [7]) | mortality at 0.1 % (Spodoptera littoralis; [7]) | mortality at 0.01 g/m2 (Blatta orientalis) | mortality at 1 g/m2 (Blatta orientalis) |
| --- | --- | --- | --- | --- | --- | --- | --- | --- | --- | --- | --- | --- | --- | --- | --- | --- | --- | --- |
| COP(=S)(OC)Oc1nc(C=C(Cl)Cl)nn1C(C)C [M 8499] | 10 to 69% | 0 to 9% | 10 to 69% | 10 to 69% | 100% | 10 to 69% |  |  |  |  |  |  |  |  |  |  |  |  |
| CCOP(=S)(OCC)Oc1nc(C(C)N(C)C)nn1-c1ccccc1 (centres unmarked) [M 8171] |  |  |  |  |  |  | 100% | 70 to 99% |  |  |  |  |  |  |  |  |  |  |
| CCOP(=S)(OCC)Oc1nc(C=C(Cl)Cl)nn1CC [M 5349/40] | 100% | 100% | 100% | 100% | 100% | 70 to 99% |  |  |  |  |  |  |  |  |  |  |  |  |
| CCOP(=S)(OCC)Oc1nc(C=C(SC)SC)nn1C [M 8825] | 0 to 9% | 100% | 70 to 99% | 100% | 10 to 69% | 10 to 69% | 100% | 100% | 100% | 100% | 100% | 100% |  |  |  |  |  |  |
| CCOP(=S)(OCC)Oc1nc(C=C(Cl)SC)nn1C [M 8805] |  | 100% | 100% | 100% |  |  | 100% | 100% |  | 100% |  |  | 10 to 69% | 100% | 100% | 100% | 10 to 69% | 100% |
| CCOP(=S)(OCC)Oc1nc(C=C(Cl)Cl)nn1C(C)C [M 8450] | 100% | 10 to 69% | 100% | 100% | 100% | 70 to 99% |  |  |  |  |  |  |  |  |  |  |  |  |
| CCOP(=S)(OCC)Oc1nc(C=C(C)C)nn1C [M 8483] |  | 70 to 99% | 10 to 69% | 100% | 10 to 69% |  |  |  |  |  |  |  | 10 to 69% |  |  |  | 100% |  |
| CCOP(=S)(OCC)Oc1nc(C(C)OC(C)=O)nn1-c1ccccc1 (centres unmarked) [M 8084] |  |  |  | 10 to 69% |  |  | 100% | 100% | 100% | 100% | 100% |  |  |  |  |  |  |  |
| C=Cc1nc(OP(=S)(OCC)OCC)n(-c2ccccc2)n1 [M 8261] |  |  |  |  |  |  | 100% | 100% | 100% | 100% | 100% | 100% |  |  |  |  |  |  |
| CCOP(=S)(OCC)Oc1nc(C=C(Cl)Cl)nn1CC(C)C [M 8498] | 100% | 10 to 69% | 70 to 99% | 10 to 69% | 100% | 10 to 69% |  |  |  |  |  |  |  |  |  |  |  |  |
| CCOP(=S)(Oc1nc(C=C(Cl)Cl)nn1C)N(C)C (centres unmarked) [M 9643] |  |  |  |  |  |  |  | 100% |  |  | 100% |  |  |  |  |  |  |  |
| CCOP(=S)(OCC)Oc1nc(C(C)OC(=O)C=C(Cl)Cl)nn1-c1ccccc1 (centres unmarked) [M 8086] |  |  |  |  |  |  | 100% | 100% | 100% | 100% | 100% |  |  |  |  |  |  |  |
| CCOP(=S)(OCC)Oc1nc(C=C(Cl)OC)nn1C [M 8592] | 100% | 100% | 10 to 69% | 100% | 100% | 100% | 100% | 100% | 100% | 100% | 100% | 100% |  |  |  |  |  |  |
| CCCC=C(CC)c1nc(OP(=S)(OCC)OCC)n(C)n1 [M 8591] |  |  |  | 100% |  |  | 100% | 100% | 100% | 100% | 100% | 100% |  |  |  |  |  |  |
| CCCOP(=S)(OCCC)Oc1nc(C=C(Cl)Cl)nn1C(C)C [M 8500] | 10 to 69% |  |  |  |  |  | 70 to 99% | 10 to 69% | 100% | 100% | 10 to 69% | 0 to 9% |  |  |  |  |  |  |
| CCCCn1nc(C=C(Cl)Cl)nc1OP(=S)(OC)OC [M 8477] |  |  |  |  | 10 to 69% |  | 100% | 100% | 100% | 100% | 100% | 100% |  |  |  |  |  |  |
| CCOP(=S)(OCC)Oc1nc(C(C)=O)nn1-c1ccccc1 [M 7650] |  |  |  |  |  |  | 100% | 100% | 100% | 0 to 9% | 70 to 99% |  |  |  |  |  |  |  |
| CCOP(=S)(OCC)Oc1nc(C(=O)c2ccccc2)nn1-c1ccccc1 [M 7480] |  |  |  |  |  |  | 10 to 69% | 100% |  |  |  |  |  |  |  |  |  |  |
| CCOP(=S)(OCC)Oc1nc(C(C)O)nn1-c1ccccc1 (centres unmarked) [M 7853] |  |  |  |  |  |  | 100% | 100% | 100% | 100% | 100% | 10 to 69% |  |  |  |  |  |  |
| CCOP(=S)(OCC)Oc1nc(C=Cc2ccccc2)nn1C [M 8332] | 10 to 69% |  |  |  |  | 100% | 100% | 100% | 100% | 70 to 99% | 100% | 100% |  |  |  |  |  |  |
| CCOP(=S)(OC)Oc1nc(C=C(Cl)Cl)nn1C (centres unmarked) [M 9750] |  | 10 to 69% | 100% | 100% | 100% | 100% | 100% | 100% |  | 100% | 100% | 100% |  |  |  |  |  |  |
| CCOP(=S)(OCC)Oc1nc(C=C(Cl)Cl)nn1Cc1ccccc1 [M 8827] |  |  | 10 to 69% | 10 to 69% |  |  | 100% | 100% |  | 100% |  |  |  |  |  |  |  |  |
| CCOP(=S)(OCC)Oc1nc(C2=C(Cl)CCCC2)nn1C [M 5338/89] | 10 to 69% | 10 to 69% |  | 70 to 99% |  |  | 100% | 100% | 100% | 100% | 100% | 100% |  |  |  |  |  |  |
| CC=Cc1nc(OP(=S)(OCC)OCC)n(CCCC)n1 [M 8497] | 70 to 99% | 100% | 0 to 9% | 10 to 69% | 0 to 9% | 10 to 69% |  |  |  |  |  |  |  |  |  |  |  |  |
| CCOC(=O)c1nc(OP(=S)(OCC)OCC)n(-c2ccccc2)n1 [M 8257] |  |  |  |  |  |  | 70 to 99% | 70 to 99% | 70 to 99% | 10 to 69% |  | 10 to 69% |  |  |  |  |  |  |
| CCOP(=S)(Oc1nc(C=C(Cl)Cl)nn1C)c1ccccc1 (centres unmarked) [M 9579] |  |  |  |  |  |  | 100% | 100% |  |  |  |  |  |  |  |  |  |  |
| C#CCn1nc(C=C(Cl)Cl)nc1OP(=S)(OCC)OCC [M 8828] |  |  | 10 to 69% | 70 to 99% |  |  | 100% | 100% | 100% | 100% |  | 100% |  |  |  |  |  |  |
